In PMC7004250 (Cell chemical biology, 2019):
One block for each compound: values may come before it.

Legend:
H3K27me3 in HeLa cells = assay: Western blot H3K27me3 levels in HeLa cells; assay type: cell-based, human; conditions: for H3K27me3 reduced: 10 μM, after 72 hours
EED in HeLa cells [1] = biological target: T1, EED in HeLa cells (Homo sapiens, UniProt O75530); assay: Western blot EED degradation in HeLa cells; assay type: cell-based; conditions: for EED protein levels: 10 μM, 24 to 72 hrs
EED = conditions: read-out: reported IC50 (EED); ref Huang et al., 2017; cited from earlier work
DB cell viability = assay type: cell-based; conditions: human, DB cells
EZH2 in HeLa cells [2] = assay: Western blot EZH2 degradation in HeLa cells; assay type: cell-based, human; conditions: for EZH2 protein levels: 10 μM, 24 to 72 hrs
[3] = biological target: 6XHis-tagged recombinant EED (residues 1 – 441) (Homo sapiens, UniProt O75530); assay: TR-FRET EED binding assay; conditions: TR-FRET EED IC50 relative to EED226
EED in HeLa cells [4] = biological target: T1, EED in HeLa cells; assay: Jess ProteinSimple analysis of EED levels; assay type: cell-based; conditions: 5 μM, 4, 24 and 48 hrs, decrease stated at 24 hrs
EZH2 in HeLa cells [5] = assay: Jess ProteinSimple analysis of EZH2 levels; assay type: cell-based, human; conditions: 5 μM, 4, 24 and 48 hrs, decrease stated at 24 hrs
Pfeiffer cells = assay: Pfeiffer cell proliferation; assay type: cell-based, human; conditions: up to 12 days, 3 μM (Figure 6B)
[6] = system: EZH2/EZH2^Y641N in DB cells; assay: Western blot EZH2 degradation in DB cells; assay type: cell-based, human
SUZ12 in HeLa cells [7] = assay: Western blot SUZ12 degradation in HeLa cells; assay type: cell-based, human
[8] = system: H3K27me3 in DB cells (EZH2^Y641N); assay: Western blot H3K27me3 levels in DB cells; assay type: cell-based, human; conditions: 10 μM, after 72 hours
[9] = system: SUZ12 in DB cells (EZH2^Y641N); assay: Western blot SUZ12 degradation in DB cells; assay type: cell-based, human
DB cells = assay: DB cell proliferation; assay type: cell-based, human; conditions: up to 12 days, 3 μM (Figure 6A)
SUZ12 in HeLa cells [10] = assay: Global proteomics; assay type: cell-based, human; conditions: 10 μM, 24 hrs, TMT proteomics
[11] = biological target: EED in DB cells (EZH2^Y641N) (Homo sapiens, UniProt O75530); assay: Western blot EED degradation in DB cells; assay type: cell-based
HeLa cells = assay: Cellular toxicity in HeLa cells; assay type: cell-based, human; conditions: concentrations up to 30 μM
[12] = biological target: PRC2 subunits in Pfeiffer cells (EZH2^A677G) (Homo sapiens, UniProt O75530); assay: PRC2 degradation in Pfeiffer cells; assay type: cell-based; conditions: Figure S6
PRC2 subunits in Pfeiffer cells (EZH2^A677G), sequence (O75530 whole entry, stated change not applied): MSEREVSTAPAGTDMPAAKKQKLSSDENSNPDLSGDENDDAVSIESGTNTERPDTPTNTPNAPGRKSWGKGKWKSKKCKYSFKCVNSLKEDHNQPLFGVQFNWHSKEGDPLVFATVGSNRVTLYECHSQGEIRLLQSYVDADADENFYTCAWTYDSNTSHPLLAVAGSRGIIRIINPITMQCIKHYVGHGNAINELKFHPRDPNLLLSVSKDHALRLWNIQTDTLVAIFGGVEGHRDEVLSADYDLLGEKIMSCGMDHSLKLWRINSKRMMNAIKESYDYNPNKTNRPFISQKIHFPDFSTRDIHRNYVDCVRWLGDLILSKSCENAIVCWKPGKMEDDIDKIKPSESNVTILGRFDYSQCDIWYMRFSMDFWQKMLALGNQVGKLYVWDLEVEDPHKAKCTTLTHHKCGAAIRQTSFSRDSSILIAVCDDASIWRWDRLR
PRC2 subunits in Pfeiffer cells (EZH2^A677G), sequence (Q15910 whole entry A677G partner): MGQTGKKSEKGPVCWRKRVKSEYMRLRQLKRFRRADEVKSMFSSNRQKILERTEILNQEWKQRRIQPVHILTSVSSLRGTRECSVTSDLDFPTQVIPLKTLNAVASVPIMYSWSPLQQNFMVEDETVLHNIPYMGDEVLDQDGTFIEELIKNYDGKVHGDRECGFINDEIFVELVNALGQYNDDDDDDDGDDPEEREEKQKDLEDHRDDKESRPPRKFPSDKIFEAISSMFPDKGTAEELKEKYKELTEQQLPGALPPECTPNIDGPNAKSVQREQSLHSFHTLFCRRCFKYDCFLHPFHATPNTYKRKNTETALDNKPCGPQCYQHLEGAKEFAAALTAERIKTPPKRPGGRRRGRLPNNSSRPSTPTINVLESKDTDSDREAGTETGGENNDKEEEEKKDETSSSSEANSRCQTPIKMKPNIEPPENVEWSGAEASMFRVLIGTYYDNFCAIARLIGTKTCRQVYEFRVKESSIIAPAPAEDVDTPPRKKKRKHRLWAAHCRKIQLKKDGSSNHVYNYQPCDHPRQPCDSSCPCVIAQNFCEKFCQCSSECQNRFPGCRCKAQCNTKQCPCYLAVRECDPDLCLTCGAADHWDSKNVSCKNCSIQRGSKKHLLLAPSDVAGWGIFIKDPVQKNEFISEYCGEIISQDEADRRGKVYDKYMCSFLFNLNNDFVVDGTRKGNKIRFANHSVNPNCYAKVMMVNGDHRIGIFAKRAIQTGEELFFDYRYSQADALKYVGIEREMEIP
PRC2 subunits in Pfeiffer cells (EZH2^A677G), sequence (Q15022 whole entry partner): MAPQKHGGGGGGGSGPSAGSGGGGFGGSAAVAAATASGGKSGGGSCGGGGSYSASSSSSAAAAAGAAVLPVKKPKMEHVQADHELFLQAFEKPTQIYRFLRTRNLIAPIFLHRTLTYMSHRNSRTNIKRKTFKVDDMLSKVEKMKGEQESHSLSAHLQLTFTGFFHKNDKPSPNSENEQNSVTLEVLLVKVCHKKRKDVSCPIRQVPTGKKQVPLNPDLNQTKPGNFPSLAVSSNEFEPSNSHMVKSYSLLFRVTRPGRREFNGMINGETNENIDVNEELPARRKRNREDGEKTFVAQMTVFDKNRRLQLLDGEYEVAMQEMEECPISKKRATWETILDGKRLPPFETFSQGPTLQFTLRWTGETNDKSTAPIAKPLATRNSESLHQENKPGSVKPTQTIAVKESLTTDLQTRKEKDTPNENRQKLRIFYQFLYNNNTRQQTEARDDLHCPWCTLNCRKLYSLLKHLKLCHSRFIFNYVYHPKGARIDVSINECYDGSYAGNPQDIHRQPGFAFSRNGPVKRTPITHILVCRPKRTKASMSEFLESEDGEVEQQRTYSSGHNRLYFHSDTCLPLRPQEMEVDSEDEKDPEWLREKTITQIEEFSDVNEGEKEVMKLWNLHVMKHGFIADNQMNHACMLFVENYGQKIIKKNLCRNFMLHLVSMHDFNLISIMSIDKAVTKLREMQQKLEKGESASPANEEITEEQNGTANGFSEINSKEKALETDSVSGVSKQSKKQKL

T1 sequence (O75530 whole entry): as the sequence (O75530 whole entry, stated change not applied) above
6XHis-tagged recombinant EED (residues 1 – 441), sequence (O75530 whole entry, the tested form may be a part): as the sequence (O75530 whole entry, stated change not applied) above
EED in DB cells (EZH2^Y641N), sequence (O75530 2-441 limits assumed, stated change not applied): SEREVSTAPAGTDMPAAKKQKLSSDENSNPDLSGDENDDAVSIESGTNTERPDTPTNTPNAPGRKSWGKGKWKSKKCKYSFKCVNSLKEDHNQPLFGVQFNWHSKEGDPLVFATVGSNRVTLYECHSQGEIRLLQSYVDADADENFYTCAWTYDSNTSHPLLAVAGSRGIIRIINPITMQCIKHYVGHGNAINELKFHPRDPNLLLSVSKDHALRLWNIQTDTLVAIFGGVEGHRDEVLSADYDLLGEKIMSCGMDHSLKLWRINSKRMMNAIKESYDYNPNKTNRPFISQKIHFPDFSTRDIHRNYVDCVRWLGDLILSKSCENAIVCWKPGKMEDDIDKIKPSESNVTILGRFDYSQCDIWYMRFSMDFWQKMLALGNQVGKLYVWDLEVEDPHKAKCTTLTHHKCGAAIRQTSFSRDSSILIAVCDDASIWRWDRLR

Structure (SMILES): CS(=O)(=O)c1ccc(-c2cnc(NCc3ccco3)n3cnnc23)cc1 [EED226, reference compound]
- H3K27me3 reduced (H3K27me3 in HeLa cells): 52%
- EED protein levels (EED in HeLa cells [1]; HeLa cells): had no effect
- IC50 (EED): 22 nM
- viability at 12 days, 3 μM (DB cell viability): 67%
- EZH2 protein levels (EZH2 in HeLa cells [2]): had no effect

- EED protein levels (EED in HeLa cells [1]; HeLa cells): had no effect
Structure (SMILES): CCCc1cc(C)[nH]c(=O)c1CNC(=O)c1cc(-c2ccc(N3CCN(C(C)C)CC3)nc2)cc2c1cnn2C(C)C [UNC1999, reference compound]
- H3K27me3 reduced (H3K27me3 in HeLa cells): 60%
- viability at 12 days, 3 μM (DB cell viability): 67%
- EZH2 protein levels (EZH2 in HeLa cells [2]): had no effect

- loss in potency compared to EED226 [3]: 2 fold
- EED levels (Jess) (EED in HeLa cells [4]): unable to alter the levels
Structure (SMILES): Cc1ncsc1-c1ccc(CNC(=O)[C@@H]2C[C@@H](O)CN2C(=O)[C@@H](NC(=O)CCOCCOCCNC(=O)c2ccc(-c3cnc(NCc4ccco4)n4cnnc34)cc2)C(C)(C)C)cc1 [UNC6845, (2S,4R)-1-((S)-13-(tert-butyl)-1-(4-(5-((furan-2-ylmethyl)amino)-[1,2,4]triazolo[4,3-c]pyrimidin-8-yl)phenyl)-1,11-dioxo-5,8-dioxa-2,12-diazatetradecan-14-oyl)-4-hydroxy-N-(4-(4-methylthiazol-5-yl)benzyl)pyrrolidine-2-carboxamide]
- EZH2 levels (Jess) (EZH2 in HeLa cells [5]): unable to alter the levels

- loss in potency compared to EED226 [3]: 14 fold
- EED levels (Jess) (EED in HeLa cells [4]): unable to alter the levels
Structure (SMILES): Cc1ncsc1-c1ccc(CNC(=O)[C@@H]2C[C@@H](O)CN2C(=O)[C@@H](NC(=O)COCCOCCOCCNC(=O)c2ccc(-c3cnc(NCc4ccco4)n4cnnc34)cc2)C(C)(C)C)cc1 [UNC6846, (2S,4R)-1-((S)-15-(tert-butyl)-1-(4-(5-((furan-2-ylmethyl)amino)-[1,2,4]triazolo[4,3-c]pyrimidin-8-yl)phenyl)-1,13-dioxo-5,8,11-trioxa-2,14-diazahexadecan-16-oyl)-4-hydroxy-N-(4-(4-methylthiazol-5-yl)benzyl)pyrrolidine-2-carboxamide]
- EZH2 levels (Jess) (EZH2 in HeLa cells [5]): unable to alter the levels

- loss in potency compared to EED226 [3]: 5 fold
- EED levels (Jess) (EED in HeLa cells [4]): unable to alter the levels
Structure (SMILES): Cc1ncsc1-c1ccc(CNC(=O)[C@@H]2C[C@@H](O)CN2C(=O)[C@@H](NC(=O)CCOCCOCCOCCOCCNC(=O)c2ccc(-c3cnc(NCc4ccco4)n4cnnc34)cc2)C(C)(C)C)cc1 [UNC6847, (2S,4R)-1-((S)-19-(tert-butyl)-1-(4-(5-((furan-2-ylmethyl)amino)-[1,2,4]triazolo[4,3-c]pyrimidin-8-yl)phenyl)-1,17-dioxo-5,8,11,14-tetraoxa-2,18-diazaicosan-20-oyl)-4-hydroxy-N-(4-(4-methylthiazol-5-yl)benzyl)pyrrolidine-2-carboxamide]
- EZH2 levels (Jess) (EZH2 in HeLa cells [5]): unable to alter the levels

- loss in potency compared to EED226 [3]: 6 fold
- EED levels (Jess) (EED in HeLa cells [4]): decrease in the levels
Structure (SMILES): Cc1ncsc1-c1ccc(CNC(=O)[C@@H]2C[C@@H](O)CN2C(=O)[C@@H](NC(=O)CCNC(=O)c2ccc(-c3cnc(NCc4ccco4)n4cnnc34)cc2)C(C)(C)C)cc1 [UNC6851, (2S,4R)-1-((S)-2-(3-(4-(5-((furan-2-ylmethyl)amino)-[1,2,4]triazolo[4,3-c]pyrimidin-8-yl)benzamido)propanamido)-3,3-dimethylbutanoyl)-4-hydroxy-N-(4-(4-methylthiazol-5-yl)benzyl)pyrrolidine-2-carboxamide]
- EZH2 levels (Jess) (EZH2 in HeLa cells [5]): decrease in the levels

Structure (SMILES): Cc1ncsc1-c1ccc(CNC(=O)[C@@H]2C[C@@H](O)CN2C(=O)[C@@H](NC(=O)CCCNC(=O)c2ccc(-c3cnc(NCc4ccco4)n4cnnc34)cc2)C(C)(C)C)cc1 [UNC6852, (2S,4R)-1-((S)-2-(4-(4-(5-((furan-2-ylmethyl)amino)-[1,2,4]triazolo[4,3-c]pyrimidin-8-yl)benzamido)butanamido)-3,3-dimethylbutanoyl)-4-hydroxy-N-(4-(4-methylthiazol-5-yl)benzyl)pyrrolidine-2-carboxamide]
- effect on cell proliferation (Pfeiffer cells): robust anti-proliferative effects
- loss in potency compared to EED226 [3]: 5.5 fold
- H3K27me3 reduced (H3K27me3 in HeLa cells): 51%
- H3K27me3 levels after 96 hours (H3K27me3 in HeLa cells; 96 hours of treatment): further decrease in H3K27me3 levels
- Dmax EZH2/EZH2^Y641N [6]: 96%
- DC50 ([6]; read-out: DC50 EZH2/EZH2^Y641N, 24 hours): 670 ± 240 nM
- EED degradation (EED in HeLa cells [1]; HeLa cells, 5 μM, 24 hours, western blot): 80%
- EED protein levels (EED in HeLa cells [1]; HeLa cells): decrease in protein levels
- Dmax at 30 µM (EED in HeLa cells [1]; HeLa, read-out: Dmax EED (maximal degradation)): 92%
- Dmax SUZ12 (maximal degradation) (SUZ12 in HeLa cells [7]; western blot): 22%
- loss of H3K27me3 [8]: 71%
- EED levels (Jess) (EED in HeLa cells [4]): decrease in the levels
- Dmax SUZ12 ([9]; DB cells): 82%
- maximal degradation of SUZ12 in DB cells relative to HeLa cells ([9]; DB vs HeLa): 3.7 fold
- EC50 ([9]; read-out: half maximal degradation concentration SUZ12, DB cells, 24 hours): 590 ± 170 nM
- effect on cell proliferation (DB cells): robust anti-proliferative effects
- SUZ12 degradation (proteomics) (SUZ12 in HeLa cells [10]): 21%
- SUZ12 log2 fold change (treated/DMSO treated) (SUZ12 in HeLa cells [10]): −0.34
- Dmax ([11]; DB, read-out: Dmax EED): 94%
- DC50 ([11]; read-out: DC50 EED, DB cells, 24 hours): 610 ± 180 nM
- cellular toxicity (HeLa cells): no cellular toxicity was observed
- viability at 12 days, 3 μM (DB cell viability): 95%
- degradation of PRC2 subunits [12]: degradation of all three PRC2 subunits
- EZH2 levels (Jess) (EZH2 in HeLa cells [5]): decrease in the levels
- EZH2 degradation (EZH2 in HeLa cells [2]; 5 μM, 24 hours, western blot): 76%
- EZH2 protein levels (EZH2 in HeLa cells [2]): decrease in protein levels
- Dmax EZH2 (maximal degradation) (EZH2 in HeLa cells [2]; % degradation at 30 μM after 24 hours): 75%

- loss in potency compared to EED226 [3]: 8 fold
- EED levels (Jess) (EED in HeLa cells [4]): significant degradation was not observed
Structure (SMILES): Cc1ncsc1-c1ccc(CNC(=O)[C@@H]2C[C@@H](O)CN2C(=O)[C@@H](NC(=O)CCCCNC(=O)c2ccc(-c3cnc(NCc4ccco4)n4cnnc34)cc2)C(C)(C)C)cc1 [UNC6853, (2S,4R)-1-((S)-2-(5-(4-(5-((furan-2-ylmethyl)amino)-[1,2,4]triazolo[4,3-c]pyrimidin-8-yl)benzamido)pentanamido)-3,3-dimethylbutanoyl)-4-hydroxy-N-(4-(4-methylthiazol-5-yl)benzyl)pyrrolidine-2-carboxamide]
- EZH2 levels (Jess) (EZH2 in HeLa cells [5]): significant degradation was not observed

Structure (SMILES): Cc1ncsc1-c1ccc(CNC(=O)[C@@H]2C[C@H](O)CN2C(=O)[C@@H](NC(=O)CCCNC(=O)c2ccc(-c3cnc(NCc4ccco4)n4cnnc34)cc2)C(C)(C)C)cc1 [UNC7043, (2S,4S)-1-((S)-2-(4-(4-(5-((furan-2-ylmethyl)amino)-[1,2,4]triazolo[4,3-c]pyrimidin-8-yl)benzamido)butanamido)-3,3-dimethylbutanoyl)-4-hydroxy-N-(4-(4-methylthiazol-5-yl)benzyl)pyrrolidine-2-carboxamide]
- effect on cell proliferation (Pfeiffer cells): had no effect on cell proliferation
- EZH2 levels (western blot) ([6]; 10 μM for 24 hours): did not affect the levels
- EED degradation (western blot) (EED in HeLa cells [1]; HeLa cells, 10 μM for 24 hrs): did not degrade
- SUZ12 degradation (western blot) (SUZ12 in HeLa cells [7]; 10 μM for 24 hrs): did not degrade
- SUZ12 levels (western blot) ([9]; DB cells, 10 μM for 24 hours): did not affect the levels
- effect on cell proliferation (DB cells): had no effect on cell proliferation
- EED levels (western blot) ([11]; DB cells, 10 μM for 24 hours): did not affect the levels
- EZH2 degradation (western blot) (EZH2 in HeLa cells [2]; 10 μM for 24 hrs): did not degrade
